Test results published in the supplement of paper PMC8671470.

Assays:
Details in all cases: 72 h
HEL = assay: cell viability (% survival relative to DMSO control, bortezomib = 0%); higher = less cytotoxic
In short: (§1)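 Fifteen myeloid leukaemia cell lines were exposed to compounds at 1, 10, 100, 1000 or 10000 nM in 384-well plates for 72 h at 37 °C and 5% CO2. Viability was read by CellTiter-Glo luminescence and normalised, with vehicle as 100% and a 10 µM positive control as 0%. Values are percent survival averaged over duplicates.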

HL-60 [1] = assay: as above
In short: as §1

KCL-22 [2] = assay: as above
In short: as §1

NOMO-1 [3] = assay: as above
In short: as §1

Mono-Mac-6 = assay: as above
In short: as §1

SHI-1 = assay: as above
In short: as §1

ML-2 [4] = assay: as above
In short: as §1

THP-1 = assay: as above
In short: as §1

MV4-11 = assay: as above
In short: as §1

MOLM-13 = assay: as above
In short: as §1

KU-812 = assay: as above
In short: as §1

LAMA-84 = assay: as above
In short: as §1

K-562 = assay: as above
In short: as §1

BV-173 = assay: as above
In short: as §1

KG-1 [5] = assay: as above
In short: as §1

HL-60 [6] = test system: HL-60
In short: (§2)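 In 384-well plates holding acoustically pre-printed compounds at five tenfold doses from 1 to 10,000 nM, in duplicate, fifteen myeloid leukaemia cell lines were grown in RPMI 1640 for 72 h at 37 °C with 5% CO2. Luminescent ATP viability was scaled between vehicle and a positive control at 10 µM. The IC50 was then taken from log-logistic dose–response fits with four parameters.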

KCL-22 [7] = test system: KCL-22
In short: as §2

NOMO-1 [8] = test system: NOMO-1
In short: as §2

ML-2 [9] = test system: ML-2
In short: as §2

KG-1 [10] = test system: KG-1
In short: as §2

HL-60 [11] = assay: cell viability (% survival relative to DMSO control); higher = less cytotoxic
In short: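 HL-60 cells in RPMI 1640 with 10% FBS were rescreened against the full library on 384-well plates at five tenfold concentrations, 1–10,000 nM, in duplicate. Each screen was run with DMSO or 100 nM of one of three metabolic inhibitors, for 72 h at 37 °C, 5% CO2. Viability was read by CellTiter-Glo and normalised to DMSO and 10 μM proteasome-inhibitor wells. Where given, area under the curve came from four-parameter log-logistic fits (drc, PharmacoGx).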

CC(C)(C)c1ccc(S(=O)(=O)NCc2ccc(C(=O)Nc3cccnc3)cc2)cc1 [STF-31]
cell viability [%]
Details | 1 nM | 10 nM | 100 nM | 1000 nM | 10000 nM
BV-173 | 96.3 | 111 | 3.51 | 0.776 | 0.807
HEL | 107 | 119 | 35.3 | 3.71 | 2.64
HL-60 [1] | 102 | 169 | 65.7 | -0.0172 | 0.631
K-562 | 109 | 103 | 82.2 | 11.9 | 3.63
KCL-22 [2] | 85 | 80 | 98.4 | 9.33 | 1.6
KG-1 [5] | 147 | 137 | 72.6 | 19.7 | 18.4
KU-812 | 91.8 | 107 | 58.6 | 14.2 | 7.98
LAMA-84 | 97.5 | 94.6 | 68.8 | 6.82 | 2.61
ML-2 [4] | 95.8 | 101 | 83.5 | 3.23 | 0.455
MOLM-13 | 111 | 154 | 96.6 | 109 | 0.127
MV4-11 | 98 | 139 | 3.11 | 0.253 | 0.177
Mono-Mac-6 | 107 | 114 | 105 | 36.9 | 31
NOMO-1 [3] | 102 | 95.7 | 40.1 | 6.08 | 0.284
SHI-1 | 89.7 | 118 | 108 | 101 | 57.4
THP-1 | 101 | 95.9 | 101 | 103 | 110

Details | IC50 (cell viability) [µM]
HL-60 [6] | 0.143
KCL-22 [7] | 0.437
KG-1 [10] | 0.144
ML-2 [9] | 0.228
NOMO-1 [8] | 0.074

cell viability [%], HL-60 [11]
Details | 0.001 µM | 0.01 µM | 0.1 µM | 1 µM | 10 µM
co-treatment: AZD3965 100 nM | 104 | 95.82 | 94.3 | 20.9 | 2.06
co-treatment: DMSO vehicle | 104 | 94.1 | 108 | 10.1 | 4.63
co-treatment: GSK2194069 100 nM | 101 | 98.62 | 99.7 | 6.72 | 2.51
co-treatment: pictilisib 100 nM | 100 | 93.2 | 105 | 18 | 3.08

C[C@H]1c2cccc(O)c2C(=O)C2C(=O)[C@]3(O)C(=O)C(C(N)=O)C(=O)[C@@H](N(C)C)[C@@H]3[C@@H](O)[C@@H]21 (stereo not given in full) [Doxycycline]
cell viability [%]
Details | 1 nM | 10 nM | 100 nM | 1000 nM | 10000 nM
BV-173 | 107 | 87.9 | 99.2 | 102 | 69.7
HEL | 120 | 107 | 90.5 | 108 | 75.3
HL-60 [1] | 123 | 100 | 118 | 111 | 67.4
K-562 | 112 | 97 | 97.3 | 101 | 46.2
KCL-22 [2] | 130 | 69.3 | 93.6 | 109 | 41.6
KG-1 [5] | 106 | 91.7 | 95.9 | 95.1 | 87.9
KU-812 | 111 | 88.3 | 105 | 102 | 74.4
LAMA-84 | 101 | 95.3 | 106 | 92 | 66.1
ML-2 [4] | 111 | 103 | 97.9 | 90 | 45.9
MOLM-13 | 124 | 114 | 92.7 | 104 | 74.5
MV4-11 | 110 | 105 | 94.2 | 97 | 50.9
Mono-Mac-6 | 103 | 98.6 | 109 | 94.7 | 90.4
NOMO-1 [3] | 103 | 92 | 104 | 103 | 90.3
SHI-1 | 111 | 98 | 112 | 105 | 90.8
THP-1 | 95 | 95.9 | 100 | 105 | 106

Details | IC50 (cell viability) [µM]
HL-60 [6] | > 10
KCL-22 [7] | 8.54
KG-1 [10] | > 10
ML-2 [9] | 8.51
NOMO-1 [8] | > 10

cell viability [%], HL-60 [11]
Details | 0.001 µM | 0.01 µM | 0.1 µM | 1 µM | 10 µM
co-treatment: AZD3965 100 nM | 92.6 | 97.9 | 99.6 | 96.7 | 113
co-treatment: DMSO vehicle | 100 | 101 | 104 | 102 | 114.8
co-treatment: GSK2194069 100 nM | 93.3 | 96 | 99.5 | 94.8 | 108.3
co-treatment: pictilisib 100 nM | 91.7 | 98.48 | 99.2 | 102 | 96.9

Cn1cc(-c2ccncc2)c(-c2ccc(OCc3ccc4ccccc4n3)cc2)n1
cell viability [%]
Details | 1 nM | 10 nM | 100 nM | 1000 nM | 10000 nM
BV-173 | 93.5 | 97.7 | 93.6 | 90.2 | 57.3
HEL | 93 | 119 | 96.9 | 99.8 | 59.4
HL-60 [1] | 117 | 92.7 | 103 | 136 | 64.2
K-562 | 99.5 | 109 | 106 | 98.5 | 57.9
KCL-22 [2] | 116 | 96 | 96.4 | 102 | 73.7
KG-1 [5] | 97.7 | 96.7 | 110 | 102 | 87.4
KU-812 | 95.4 | 103 | 93.3 | 92.4 | 43.1
LAMA-84 | 104 | 114 | 98.4 | 95.8 | 60
ML-2 [4] | 101 | 94.6 | 98.3 | 103 | 69.3
MOLM-13 | 123 | 99.5 | 95.9 | 69.4 | 6.76
MV4-11 | 101 | 118 | 91.5 | 76.5 | 7.29
Mono-Mac-6 | 92.7 | 87.4 | 89.5 | 90.5 | 52.3
NOMO-1 [3] | 103 | 98.8 | 97 | 101 | 93.9
SHI-1 | 99 | 104 | 107 | 104 | 93.7
THP-1 | 92.7 | 101 | 100 | 104 | 92

Details | IC50 (cell viability) [µM]
HL-60 [6] | > 10
KCL-22 [7] | > 10
KG-1 [10] | > 10
ML-2 [9] | > 10
NOMO-1 [8] | > 10

c1cc(-c2cnn3cc(-c4ccc(OCCN5CCCCC5)cc4)cnc23)ccn1 [Dorsomorphin]
cell viability [%]
Details | 1 nM | 10 nM | 100 nM | 1000 nM | 10000 nM
BV-173 | 89.8 | 108 | 99.9 | 90.1 | 53.2
HEL | 87.1 | 105 | 99.4 | 103 | 72.6
HL-60 [1] | 113 | 110 | 94.9 | 97.1 | 93.9
K-562 | 94.2 | 97.4 | 93.3 | 92.1 | 93.5
KCL-22 [2] | 108 | 106 | 102 | 94.6 | 37.7
KG-1 [5] | 94.4 | 117 | 98.8 | 99.8 | 50.8
KU-812 | 91.9 | 97.1 | 97.2 | 85.9 | 1.77
LAMA-84 | 96.4 | 98.8 | 96.5 | 96.1 | 28.8
ML-2 [4] | 95.2 | 113 | 96.7 | 88.3 | 44.1
MOLM-13 | 77.6 | 78.5 | 97.5 | 108 | 97.8
MV4-11 | 89.9 | 117 | 97.4 | 99.8 | 89.1
Mono-Mac-6 | 95.3 | 101 | 103 | 42.8 | 6.23
NOMO-1 [3] | 93.2 | 105 | 98.8 | 92.7 | 48.5
SHI-1 | 104 | 102 | 95.6 | 103 | 113
THP-1 | 94.5 | 101 | 101 | 96.2 | 55.6

Details | IC50 (cell viability) [µM]
HL-60 [6] | > 10
KCL-22 [7] | 6.79
KG-1 [10] | > 10
ML-2 [9] | 5.24
NOMO-1 [8] | 6.43

cell viability [%], HL-60 [11]
Details | 0.001 µM | 0.01 µM | 0.1 µM | 1 µM | 10 µM
co-treatment: AZD3965 100 nM | 101 | 101 | 99.7 | 99.9 | 56.2
co-treatment: DMSO vehicle | 99.8 | 102 | 99.9 | 95.21 | 63.4
co-treatment: GSK2194069 100 nM | 108 | 102 | 104 | 105 | 63.4
co-treatment: pictilisib 100 nM | 93.5 | 99.7 | 94.8 | 82.3 | 34

CN(CCCOc1ccc(Cc2ccccc2)cc1)CCC(=O)O
cell viability [%]
Details | 1 nM | 10 nM | 100 nM | 1000 nM | 10000 nM
BV-173 | 96.8 | 98.4 | 100 | 99.4 | 95.8
HEL | 107 | 113 | 102 | 129 | 110
HL-60 [1] | 99.9 | 102 | 120 | 191 | 115
K-562 | 103 | 107 | 98.1 | 112 | 104
KCL-22 [2] | 106 | 103 | 94.8 | 116 | 110
KG-1 [5] | 94.1 | 110 | 104 | 108 | 92.6
KU-812 | 99.9 | 105 | 90.9 | 106 | 94.2
LAMA-84 | 110 | 119 | 95 | 98.2 | 91.9
ML-2 [4] | 105 | 97 | 103 | 113 | 107
MOLM-13 | 119 | 122 | 91.9 | 133 | 79.1
MV4-11 | 99.1 | 97.6 | 96 | 125 | 87.8
Mono-Mac-6 | 106 | 90.1 | 101 | 107 | 89
NOMO-1 [3] | 106 | 107 | 95.1 | 106 | 101
SHI-1 | 106 | 102 | 116 | 115 | 110
THP-1 | 104 | 103 | 96.1 | 98.4 | 102

Details | IC50 (cell viability) [µM]
HL-60 [6] | > 10
KCL-22 [7] | > 10
KG-1 [10] | > 10
ML-2 [9] | > 10
NOMO-1 [8] | > 10

cell viability [%], HL-60 [11]
Details | 0.001 µM | 0.01 µM | 0.1 µM | 1 µM | 10 µM
co-treatment: AZD3965 100 nM | 98 | 101 | 112 | 99.6 | 99.54
co-treatment: DMSO vehicle | 106 | 100 | 104 | 100 | 98.6
co-treatment: GSK2194069 100 nM | 102.15 | 102 | 105.1 | 103 | 101
co-treatment: pictilisib 100 nM | 98.7 | 110 | 114 | 97.8 | 93.3
